According to patent US7304166B2, “Benzenesulfonate salt of 4-fluoro-2-cyanopyrrolidine derivatives” (Taisho Pharmaceutical Co., Ltd., priority 2002, dated 2007):

Key:
Assay type in all cases: physicochemical
[1] = Testing for weight change under humidified conditions; settings: room temperature; for State / Change in weight: desiccator containing water
Description: Each analyte (10.0 mg) was metered into a microtube (diameter: 8 mm, length: 50 mm) and allowed to stand in a desiccator containing water in such a manner as to keep the tube from coming into contact with water. The desiccator was allowed to stand at room temperature. The analytes were monitored for their state and measured for their weight with time. Changes in weight were expressed as percentages (%).

[2] = Solid-state stability testing (remaining percentage by HPLC)
Description: Each analyte (about 1 mg) was precisely metered and stored in a screw-capped test tube covered with aluminum foil for light shielding, which was sealed under heated conditions (70° C.) or opened under heated and humidified conditions (40° C., 75% RH). The remaining percentage of each drug was measured in the following manner. After completion of a given period of storage, the test tubes were supplemented with 10 ml HPLC mobile phase to dissolve the analytes and then provided for quantification by HPLC. The results were compared in area with the initial values obtained before heating or before heating and humidification to calculate the remaining percentage of drugs.
Column temperature: 40° C.
Detection: UV absorptiometer (Detection wavelength: 210 nm)
Mobile phase: water/acetonitrile/phosphoric acid/SDS (700:300:1:2)

[3] = Compatibility testing with additives (remaining percentage by HPLC); settings: 65° C. for 1 week, sealed, methanesulfonate salt
Description: This testing was performed according to the report of Serajuddin A. T. M. et al. (J. Pharm. Sci., 88, 696-704, 1999). A drug substance and additives were metered into a screw-capped test tube according to Recipe A (10 mg drug substance, 68 mg crystalline cellulose, 2 mg magnesium stearate) or Recipe B (10 mg drug substance, 68 mg lactose, 2 mg hydrogenated oil) and mixed in a rotary mixer (MIX-ROTAR VMR-5, Iuchi Seieido Co., Ltd., Japan) for 1 hour. The mixture according to Recipe A or B was further stirred using a vortex mixer (TOUCH MIXER MT-31, Yamato Scientific Co., Ltd., Japan), provided that Recipe A was supplemented with no additional ingredient, while Recipe B was supplemented with 16 μl purified water. The mixtures were stored at 65° C. for 1 week under sealed and completely light-shielded conditions and then measured for drug content after storage to calculate the remaining percentage of each drug in each recipe.
The drug content was determined in the following manner. […] The resulting solutions were each filtered through a 0.45 μm membrane filter, 5 ml of which was sampled and filled up with 50% methanol in a 10 ml measuring flask for use as a sample solution and then quantified by HPLC. […]

[4] = humidified conditions, over the test period
[5] = 40° C., 75% RH for 1 month, opened, light-shielded
[6] = 70° C. for 3 days, sealed, light-shielded

Row | State ([1]; Day 3) | Change in weight under humidified conditions [1, 4] | State under humidified conditions [1, 4] | Remaining percentage of drug [2, 5] [%] | Remaining percentage of drug [2, 6] [%] | Remaining percentage of drug ([2]; under either condition (70° C. 3 days; 40° C., 75% RH 1 month)) [%] | Change in weight ([1]; Day 1) | State ([1]; Day 1) | Change in weight ([1]; Day 2) | State ([1]; Day 2) | Remaining percentage of drug ([3]; Recipe A (crystalline cellulose, magnesium stearate)) [%] | Remaining percentage of drug ([3]; Recipe B (lactose, hydrogenated oil, purified water)) [%] | Compound
1 | No change | no change in weight | no deliquescence | 99.6 | 99.3 | ≥ 99 | – | – | – | – | – | – | CC(C)(CO)NCC(=O)N1C[C@@H](F)C[C@H]1C#N.O=S(=O)(O)c1ccccc1 [Example 1, (2S,4S)-2-cyano-4-fluoro-1-[(2-hydroxy-1,1-dimethyl)ethylamino]acetylpyrrolidine benzenesulfonate salt]
2 | – | – | deliquesced | 92.6 | 97.0 | – | +44% | Deliquescence | – | – | – | – | CC(C)(CO)NCC(=O)N1C[C@@H](F)C[C@H]1C#N.Cl [Reference Example 1, (2S,4S)-2-cyano-4-fluoro-1-[(2-hydroxy-1,1-dimethyl)ethylamino]acetylpyrrolidine hydrochloride salt]
3 | – | – | deliquesced | 95.9 | 95.5 | – | +28% | – | +71% | Deliquescence | 91.6 | 74.5 | CC(C)(CO)NCC(=O)N1C[C@@H](F)C[C@H]1C#N.CS(=O)(=O)O [Reference Example 2, (2S,4S)-2-cyano-4-fluoro-1-[(2-hydroxy-1,1-dimethyl)ethylamino]acetylpyrrolidine methanesulfonate salt]
